US20230219951A1, “PYRIDINE-PYRIMIDINE DERIVATIVE, PREPARATION METHOD THEREFOR AND PHARMACEUTICAL USE THEREOF” (Jiangsu Hengrui Pharmaceuticals Co., Ltd., priority 2020, published 2023)

Tested on: ERK phosphorylation of H358 cells
Experiment: Inhibition of ERK phosphorylation of H358 cells (HTRF pERK/total ERK)
Assay type: cell-based
Conditions: Homo sapiens, NCI-H358, 1 h incubation, pERK/total ERK ratio
How it was run: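 H358 (KRAS G12C) cells were treated 1 h at 37°C with compound, 9 points by 5-fold dilution from 10 μM (final), 0.1% DMSO blank. Lysates were probed by HTRF with phospho-ERK1/2 and total-ERK1/2 antibodies overnight at room temperature, and IC50 was fitted from the pERK/total ERK ratio.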

Cc1nc(N[C@H](C)c2cccc(C(F)F)c2F)c2cc([C@]3(O)CC[C@@H](O)CC3)c(=O)[nH]c2n1 [Example 18-p1, 4-(((R)-1-(3-(difluoromethyl)-2-fluorophenyl)ethyl)amino)-6-((1s,4S)-1,4-dihydroxycyclohexyl)-2-methylpyrido[2,3-d]pyrimidin-7(8H)-one]
IC50: 51 nM
